In patent US4237139A, “4-(3-(4-Quinolyl)propyl)piperidines, their preparation and their use as medicines” (Pharmindustrie, priority 1976, dated 1980):
Where two headings read alike, the source gives them in different places.

Key:
[1] = test system: 5-HTP-induced quivering; test: Potentiation test of 5-hydroxytryptophan (5-HTP), quivering in mice; type: in vivo, CD1 (Charles River) male mice; conditions: for ED50: Mus musculus, sc, read-out: ED 50, dose giving an average indication of quivering equal to 1; for inherent effect (in the absence of 5-HTP): dose of 25 mg/kg, control product groups
Excerpt: (2) Potentialing Effect of 5-HTP:
It is known that the administration of 5-HTP parenterally in mice causes, with large doses, a characteristic behavior, i.e. quivering, torsions of the trunk, displacement of the rear legs, shaking of the head and increased general motility. To show a potentiating power with respect to 5-HTP, the present inventors have therefore used to advantage one of the characteristic properties of the precursor of serotonine, i.e. quivering. The procedure used is inspired by that of C. […] Groups of 8 male mice were used. The chronological order of the test was as follows for the groups treated with both 5-HTP and the products according to the invention.
At time t=30 min., the product to the tested was injected subcutaneously (S.C.) in the form of a 9% aqueous solution of NaCl.
At time t=75 min., the quivering in each animal was measured using the following scale:
1=quivering of average intensity
The chronological order was the same for the "control 5-HTP" and "control product" groups except that, in the first case, a 9% aqueous solution of NaCl was injected in the S.C. manner instead of the product solution and, in the second case, a 9% aqueous solution of NaCl was injected in the I.P. manner instead of the 5-HTP solution. The "control product" groups received the same doses of the tested product as the groups treated with both 5-HTP and the product in order to discover any possible effect inherent in the product.
The number of points for each group was totalled and the average indication of quivering was determined.

[2] = test system: uptake of serotonine by human blood platelets; test: Inhibition of the uptake of serotonine by human blood platelets; type: cell-based; conditions: for IC50: Platelet, read-out: Inhibition of the Uptake of serotonine I50; for times less effective than its epimer as inhibitor of serotonine uptake: Example 7 vs Example 1, Example 9 vs Example 3
Excerpt: It is known that the uptake of serotonine by the blood platelets is a good model or indication of the uptake of this amine by neurons [see J. TUOMISTO, J. Pharm., Pharmac., 26 92 (1974)]. When it is applied to the investigation of medicaments, a method which brings into play the blood platelets presents great interest because it makes it possible to use human cells, which enables the method to give a good anticipation of the effect of the products on human beings.
(§1) The capacity of the products for inhibiting the uptake of serotonine or for causing its release has been shown on human blood platelets according to J. L. DAVID et al. "Platelets Function and Thrombosis, a Review of Methods" p. 335 (Plenum Press, London, 1972).
(a) Inhibition of the uptake of serotonine
The results are expressed by a 50% inhibiting dose I50, which represents the product dose in micromoles per liter reducing the uptake of serotonine by 50%.

[3] = test system: release of serotonine by human blood platelets; test: Release of serotonine from human blood platelets; type: cell-based; conditions: for activation at 5 µM / activation at 50 µM: Homo sapiens, Platelet, read-out: Percentage of increase of the release of serotonine; for release of serotonine compared with p-chloro amphetamine, in words / release of serotonine, in words: human blood platelets
Excerpt: as §1
(b) Release of serotonine
The action of the products on the release of serotonine has been tested at two concentrations: 5×10^-6 mole per liter and 5×10^-5mole per liter.
The results obtained are expressed by a percentage of increase of the release of serotonine in comparison with the results obtained with the controls.

[4] = test system: sleep induced by serotonine; test: Potentiation of sleep induced by serotonine in chickens; type: in vivo, chicken
Experimental: The role of the cerebral serotonine in sleep is a well-known fact as reported by M. Jouvet and Coll., C. R. Acad. Sc.
Groups of 12 chickens were used, to which were administered intravenously serotonine at a dosage level of 0.1 mg/kg.

[5] = test system: vasoconstriction of the nasal mucous membrane; test: Vascular action: potentiation of the vascular effects of serotonine in anaesthetized dog; type: in vivo
Experimental: The potentiation of the vascular effects of serotonine is shown according to the procedure of J. J. Loux, Arch. […] The modified method consists in injecting into the carotid of an anaesthetized dog increasing and cumulated doses of serotonine. […] This increase was measured by connecting the nasal sinus, hermetically isolated from outside, with a pressure gauge.

[6] = Acute toxicity (LD50) in mice; conditions: mouse, in vivo
Experimental: The acute toxicities and symptomatologies of the compounds according to the present invention have been determined on CD1 (Charles River) male mice by I.V. and oral methods. The LD50's were calculated, after 3 days of observation, by the cumulative method of J. J. Reed & H. Muench, Amer. J. Hyg., 27, 493, 1938, which is relied on herein and the disclosure incorporated by reference.

[7] = test system: ventricular arrhythmia caused by aconitine; conditions: aconitine test, rats
[8] = test system: ventricular arrhythmia caused by aconitine; test: animal or person; conditions: Rattus norvegicus, iv, read-out: ED50 I.V., dose increasing by 50% the perfusion time of aconitine
[9] = molecular target: benzodiazepine receptors in rat brain membranes; test: Inhibition of specific ^3 H-diazepam binding to rat brain membranes; conditions: for Ki: read-out: Ki, Inhibition of Specific ^3 H-Diazepam Binding To Rat Brain Membranes, rat brain membranes, ^3 H-diazepam
[10] = in vivo; conditions: rat, iv
[11] = test system: uptake of serotonine by synaptosomes of the rat's brain; test: Inhibition of the uptake of serotonine by synaptosomes of the rat's brain; type: biochemical; conditions: in vitro, read-out: 50% inhibiting dose I50, uptake of serotonine by synaptosomes
[12] = iv, I.V., Table 4 (toxicity; species not given), read-out: LD50 I.V.
[13] = po, Table 6, P.O., mice, 3 days of observation, read-out: LD50 P.O.
[14] = 5 × 10^-5 mole per liter, in comparison with controls
[15] = 5 × 10^-6 mole per liter, in comparison with controls

Row | Structure (SMILES) | IC50 ([2]; Homo sapiens) | activation at 5 µM [3] | activation at 50 µM [3] | LD50 at 72 h [6, 12] | LD50 at 72 h [6, 13] | ED50 [8] | Ki [9] | selectivity ratio [10] | also measured
1 | C=C[C@H]1CNCC[C@H]1CCCc1ccnc2ccc(OC)cc12 [Example 1, 4(R)-[3-(6-methoxy 4-quinolyl)propyl] 3(R)-vinyl piperidine] | 10 nM | 7% | 32% | 30 mg/kg | 600 mg/kg | 2 mg/kg |  |  | ED50 [1]: 14 mg/kg; inherent effect (in the absence of 5-HTP) [1]: did not have any inherent effect; chickens sent to sleep ([4]; product of Example 1 at 3 mg/kg I.V. + serotonine 0.1 mg/kg I.V.): 60%; potentiation of vascular effect of serotonine (pressure decrease measured by the gauge) ([5]; 1 μg/kg I.V., 0.05 μg/kg of serotonine): twice greater; antiarythmic effectiveness compared with quinidine and disopyramide, in words [7]: more effective than the reference products (quinidine and disopyramide)
2 | CC[C@H]1CNCC[C@H]1CCCc1ccnc2ccccc12 [Example 5, 4(R)-[3-(4-quinolyl)propyl] 3(R)-ethyl piperidine] |  |  |  | 22 mg/kg | 600 mg/kg | 2.3 mg/kg | 8000 nM | 9.6 | antiarythmic effectiveness compared with quinidine and disopyramide, in words [7]: more effective than the reference products (quinidine and disopyramide)
3 | CC[C@@H]1CNCC[C@H]1CCCc1ccnc2ccc(OC)cc12 [Example 9, 4(R)-[3-(6-methoxy 4-quinolyl)propyl]3(S)-ethyl piperidine] |  |  |  |  | 200 mg/kg |  | 5000 nM |  | IC50 ([2]; human blood platelets): 100 nM; times less effective than its epimer as inhibitor of serotonine uptake ([2]; human blood platelets): ≥ 10 times; activation at 50 µM [3, 14]: 69%; activation at 5 µM [3, 15]: 30%; release of serotonine compared with p-chloro amphetamine, in words [3]: even more effective than p-chloro amphetamine; release of serotonine, in words [3]: powerful agents for the release of serotonine
4 | CC(N)Cc1ccc(Cl)cc1 (stereo not drawn) [p-Chloro amphetamine, p-chloro amphetamine, reference compound] | 12000 nM | 6% | 51% |  |  |  |  |  | 
5 | C=C[C@@H]1CNCC[C@H]1CCCc1ccnc2ccc(OC)cc12 [Example 7, 4(R)-[3-(6-methoxy 4-quinolyl)propyl]3(S)-vinyl piperidine] | 1000 nM | 40% | 78% |  | 225 mg/kg |  |  |  | times less effective than its epimer as inhibitor of serotonine uptake ([2]; human blood platelets): 100 times; release of serotonine compared with p-chloro amphetamine, in words [3]: even more effective than p-chloro amphetamine; release of serotonine, in words [3]: powerful agents for the release of serotonine
6 | CN(C)CCCN1c2ccccc2CCc2ccccc21 [Imipramine, reference compound] | 400 nM | 3% | 13% |  |  |  |  |  | Ki, Inhibition of Specific ^3 H-Diazepam Binding To Rat Brain Membranes [9]: inactive
7 | c1ccc2c(CCCC3CCNCC3)ccnc2c1 [Example 4, 4-[3-(4-quinolyl)propyl]piperidine] |  |  |  | 42 mg/kg | 600 mg/kg | 15 mg/kg | 3500 nM | 2.8 | 
8 | CC[C@H]1CNCC[C@H]1CCCc1ccnc2ccc(OC)cc12 [Example 3, 4(R)-[3-(6-methoxy 4-quinolyl)propyl] 3(R)-ethyl piperidine] |  |  |  | 21 mg/kg | 600 mg/kg | 0.7 mg/kg | 4500 nM | 30 | IC50 [11]: 8 nM; IC50 ([2]; human blood platelets): 10 nM; activation at 50 µM [3, 14]: 67%; activation at 5 µM [3, 15]: 34%; release of serotonine compared with p-chloro amphetamine, in words [3]: even more effective than p-chloro amphetamine; release of serotonine, in words [3]: powerful agents for the release of serotonine; antiarythmic effectiveness compared with quinidine and disopyramide, in words [7]: more effective than the reference products (quinidine and disopyramide)
9 | C=C[C@H]1C[N@@]2CC[C@H]1C[C@@H]2[C@@H](O)c1ccnc2ccc(OC)cc12 [Quinidine, reference compound] |  |  |  | 70 mg/kg |  | 7.5 mg/kg |  | 9.3 | 
10 | NCCc1c[nH]c2ccc(O)cc12 [serotonine, reference compound] |  |  |  |  |  |  |  |  | chickens sent to sleep ([4]; serotonine 0.1 mg/kg I.V. alone): 25%; minimal effective dose ([5]; Canis lupus familiaris, serotonine into the carotid, increasing and cumulated doses, read-out: dose from which an increase of the total volume of sinus was observed): ≥ 0.0002 mg/kg
11 | C=C[C@H]1CNCC[C@H]1CCCc1ccnc2ccccc12 [Example 2, 4(R)-[3-(4-quinolyl)propyl] 3(R)-vinyl piperidine] |  |  |  | 30 mg/kg | 525 mg/kg | 12 mg/kg | 2500 nM | 2.5 | IC50 [11]: 35 nM; ED50 ([1]; product S.C., 5-HTP 150 mg/kg I.P., male mice): 12 mg/kg; inherent effect (in the absence of 5-HTP) [1]: did not have any inherent effect
12 | CC(C)N(CCC(C(N)=O)(c1ccccc1)c1ccccn1)C(C)C (stereo not drawn) [Disopyramide, reference compound] |  |  |  | 26 mg/kg |  | 4 mg/kg |  | 6.5 | 
